Legend:
[1] = tested on: mucus secreted by the respiratory airway; assay: antisecretory activity, respiratory mucus secretion; format: in vivo, albino male New Zealand rabbits; conditions: vs control group
In short: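 Male New Zealand rabbits, groups of four, urethane-anaesthetised (1.1 g/kg i.p.) with tracheal Y cannula breathing 100%-humidity air at 39° C. Mucus collected and measured 3 and 6 h post-dose; change expressed as percent difference from vehicle controls.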

in vivo [2] = conditions: mouse
in vivo [3] = conditions: rat
[4] = tested on: cough provoked by mechanical stimulation of the tracheal bifurcation mucosa; assay: antitussive activity, mechanically provoked coughing; format: in vivo, albino Guinea-pigs; conditions: 1 h after administration
In short: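 Albino guinea-pigs (300 g) with a tracheal Y cannula; coughing provoked by mechanically stimulating the tracheal bifurcation mucosa with a boar's hair.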

[5] = tested on: carrageenin-induced oedema; assay: carrageenin-induced oedema test (anti-inflammatory activity); format: in vivo, albino male Wistar rats
[6] = tested on: phenyl-p-quinone-induced writhing (abdominal contractions); assay: phenylquinone-induced writhing test (analgesic activity), compound given 30 min before phenyl-p-quinone; format: in vivo, male Wistar rats
In short: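 Male Wistar rats (110±5 g), fasted 14 h, received test compounds orally or parenterally in 0.5% CMC/saline vehicle 30 min before 2 ml of 0.36% phenyl-p-quinone in 5% ethanol.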

COc1ccccc1OC(=O)CNC(=O)Cc1ccc(C(=O)c2ccc(C)cc2)n1C [Compound 1-d, 1-methyl-5-p-toluoylpyrrole-2-acetamidoacetic acid guaiacyl ester]
% difference in mucus secretion ([1]; 50 mg/Kg i.p., 3 h): -5% | % difference in mucus secretion ([1]; 50 mg/Kg i.p., 6 h): -5% | % difference in mucus secretion ([1]; 50 mg/Kg per os, 3 h): 0.0% | % difference in mucus secretion ([1]; 50 mg/Kg per os, 6 h): 0.0% | % difference in mucus secretion ([1]; 75 mg/Kg i.p., 3 h): -18% | % difference in mucus secretion ([1]; 75 mg/Kg i.p., 6 h): -15% | % difference in mucus secretion ([1]; 75 mg/Kg per os, 3 h): -15% | % difference in mucus secretion ([1]; 75 mg/Kg per os, 6 h): -10% | % difference in mucus secretion ([1]; 100 mg/Kg i.p., 3 h): -38% | % difference in mucus secretion ([1]; 100 mg/Kg i.p., 6 h): -30% | % difference in mucus secretion ([1]; 100 mg/Kg per os, 3 h): -32% | % difference in mucus secretion ([1]; 100 mg/Kg per os, 6 h): -27% | LD50 (in vivo [2]; ip): 1370 mg/kg | LD50 (in vivo [2]; po): > 1500 mg/kg | LD50 (in vivo [3]; ip): 1100 mg/kg | LD50 (in vivo [3]; po): 1450 mg/kg | % inhibition, cough amplitude ([4]; 50 mg/Kg i.p.): 12% | % inhibition, cough frequency ([4]; 50 mg/Kg i.p.): 15% | % inhibition, cough amplitude ([4]; 50 mg/Kg per os): 10% | % inhibition, cough frequency ([4]; 50 mg/Kg per os): 18% | % inhibition, cough amplitude ([4]; 75 mg/Kg i.p.): 20% | % inhibition, cough frequency ([4]; 75 mg/Kg i.p.): 36% | % inhibition, cough amplitude ([4]; 75 mg/Kg per os): 22% | % inhibition, cough frequency ([4]; 75 mg/Kg per os): 29% | % inhibition, cough amplitude ([4]; 100 mg/Kg i.p.): 30% | % inhibition, cough frequency ([4]; 100 mg/Kg i.p.): 45% | % inhibition, cough amplitude ([4]; 100 mg/Kg per os): 30% | % inhibition, cough frequency ([4]; 100 mg/Kg per os): 49% | oedema % inhibition ([5]; 2.5 mg/Kg per os, 2 h): 50.0% | oedema % inhibition ([5]; 2.5 mg/Kg per os, 4 h): 34.6% | oedema % inhibition ([5]; 2.5 mg/Kg per os, 6 h): 23.1% | oedema % inhibition ([5]; 2.5 mg/Kg per os, 24 h): 0.0% | oedema % inhibition ([5]; 2.5 mg/Kg per os, 48 h): 0.0% | oedema % inhibition ([5]; 2.5 mg/Kg per os, 72 h): 0.0% | oedema % inhibition ([5]; 2.5 mg/Kg, Table IV (route not given), 2 h): 52.3% | oedema % inhibition ([5]; 2.5 mg/Kg, Table IV (route not given), 4 h): 37.0% | oedema % inhibition ([5]; 2.5 mg/Kg, Table IV (route not given), 6 h): 26.0% | oedema % inhibition ([5]; 2.5 mg/Kg, Table IV (route not given), 24 h): 14.0% | oedema % inhibition ([5]; 2.5 mg/Kg, Table IV (route not given), 48 h): 0.0% | oedema % inhibition ([5]; 2.5 mg/Kg, Table IV (route not given), 72 h): 0.0% | oedema % inhibition ([5]; 5 mg/Kg per os, 2 h): 51.4% | oedema % inhibition ([5]; 5 mg/Kg per os, 4 h): 38.8% | oedema % inhibition ([5]; 5 mg/Kg per os, 6 h): 24.0% | oedema % inhibition ([5]; 5 mg/Kg per os, 24 h): 10.0% | oedema % inhibition ([5]; 5 mg/Kg per os, 48 h): 10.0% | oedema % inhibition ([5]; 5 mg/Kg per os, 72 h): 6.0% | oedema % inhibition ([5]; 5 mg/Kg, Table IV (route not given), 2 h): 54.0% | oedema % inhibition ([5]; 5 mg/Kg, Table IV (route not given), 4 h): 40.0% | oedema % inhibition ([5]; 5 mg/Kg, Table IV (route not given), 6 h): 24.6% | oedema % inhibition ([5]; 5 mg/Kg, Table IV (route not given), 24 h): 10.1% | oedema % inhibition ([5]; 5 mg/Kg, Table IV (route not given), 48 h): 0.0% | oedema % inhibition ([5]; 5 mg/Kg, Table IV (route not given), 72 h): 0.0% | oedema % inhibition ([5]; 10 mg/Kg per os, 2 h): 61.5% | oedema % inhibition ([5]; 10 mg/Kg per os, 4 h): 41.2% | oedema % inhibition ([5]; 10 mg/Kg per os, 6 h): 34.9% | oedema % inhibition ([5]; 10 mg/Kg per os, 24 h): 12.6% | oedema % inhibition ([5]; 10 mg/Kg per os, 48 h): 14.0% | oedema % inhibition ([5]; 10 mg/Kg per os, 72 h): 9.0% | oedema % inhibition ([5]; 10 mg/Kg, Table IV (route not given), 2 h): 60.0% | oedema % inhibition ([5]; 10 mg/Kg, Table IV (route not given), 4 h): 46.9% | oedema % inhibition ([5]; 10 mg/Kg, Table IV (route not given), 6 h): 36.7% | oedema % inhibition ([5]; 10 mg/Kg, Table IV (route not given), 24 h): 16.5% | oedema % inhibition ([5]; 10 mg/Kg, Table IV (route not given), 48 h): 6.3% | oedema % inhibition ([5]; 10 mg/Kg, Table IV (route not given), 72 h): 0.0% | oedema % inhibition ([5]; 20 mg/Kg per os, 2 h): 62.1% | oedema % inhibition ([5]; 20 mg/Kg per os, 4 h): 48.7% | oedema % inhibition ([5]; 20 mg/Kg per os, 6 h): 32.8% | oedema % inhibition ([5]; 20 mg/Kg per os, 24 h): 26.6% | oedema % inhibition ([5]; 20 mg/Kg per os, 48 h): 25.9% | oedema % inhibition ([5]; 20 mg/Kg per os, 72 h): 3.3% | oedema % inhibition ([5]; 20 mg/Kg, Table IV (route not given), 2 h): 65.0% | oedema % inhibition ([5]; 20 mg/Kg, Table IV (route not given), 4 h): 50.4% | oedema % inhibition ([5]; 20 mg/Kg, Table IV (route not given), 6 h): 48.6% | oedema % inhibition ([5]; 20 mg/Kg, Table IV (route not given), 24 h): 23.5% | oedema % inhibition ([5]; 20 mg/Kg, Table IV (route not given), 48 h): 9.1% | oedema % inhibition ([5]; 20 mg/Kg, Table IV (route not given), 72 h): 8.4% | oedema % inhibition ([5]; 50 mg/Kg per os, 2 h): 66.9% | oedema % inhibition ([5]; 50 mg/Kg per os, 4 h): 66.8% | oedema % inhibition ([5]; 50 mg/Kg per os, 6 h): 57.8% | oedema % inhibition ([5]; 50 mg/Kg per os, 24 h): 30.9% | oedema % inhibition ([5]; 50 mg/Kg per os, 48 h): 36.3% | oedema % inhibition ([5]; 50 mg/Kg per os, 72 h): 38.6% | oedema % inhibition ([5]; 50 mg/Kg, Table IV (route not given), 2 h): 69.7% | oedema % inhibition ([5]; 50 mg/Kg, Table IV (route not given), 4 h): 74.0% | oedema % inhibition ([5]; 50 mg/Kg, Table IV (route not given), 6 h): 67.2% | oedema % inhibition ([5]; 50 mg/Kg, Table IV (route not given), 24 h): 34.5% | oedema % inhibition ([5]; 50 mg/Kg, Table IV (route not given), 48 h): 20.8% | oedema % inhibition ([5]; 50 mg/Kg, Table IV (route not given), 72 h): 15.3% | oedema % inhibition ([5]; 100 mg/Kg per os, 2 h): 68.0% | oedema % inhibition ([5]; 100 mg/Kg per os, 4 h): 74.0% | oedema % inhibition ([5]; 100 mg/Kg per os, 6 h): 67.5% | oedema % inhibition ([5]; 100 mg/Kg per os, 24 h): 40.3% | oedema % inhibition ([5]; 100 mg/Kg per os, 48 h): 38.0% | oedema % inhibition ([5]; 100 mg/Kg per os, 72 h): 33.0% | oedema % inhibition ([5]; 100 mg/Kg, Table IV (route not given), 2 h): 76.5% | oedema % inhibition ([5]; 100 mg/Kg, Table IV (route not given), 4 h): 79.5% | oedema % inhibition ([5]; 100 mg/Kg, Table IV (route not given), 6 h): 73.4% | oedema % inhibition ([5]; 100 mg/Kg, Table IV (route not given), 24 h): 42.4% | oedema % inhibition ([5]; 100 mg/Kg, Table IV (route not given), 48 h): 33.0% | oedema % inhibition ([5]; 100 mg/Kg, Table IV (route not given), 72 h): 31.6% | % Protection ([6]; 5 mg/Kg i.p.): 22.1% | % Protection ([6]; 5 mg/Kg per os): 29.1% | % Protection ([6]; 10 mg/Kg i.p.): 56.0% | % Protection ([6]; 10 mg/Kg per os): 53.4% | % Protection ([6]; 20 mg/Kg i.p.): 87.0% | % Protection ([6]; 20 mg/Kg per os): 80.2%

Source: US4882349A, “Pyrrolacetic amides having antiinflammatory activity” (priority 1982, dated 1989)
